Molecules are shown by their SMILES.

The target of assay [1] is Serine/threonine-protein kinase PAK 4 (Homo sapiens, UniProt O96013). The assay is described as follows: Inhibition of PAK4 in the presence of 5uM ATP.
In assay [2] the target is T1, Inhibitor of nuclear factor kappa-B kinase subunit epsilon (Homo sapiens) (UniProt Q14164).
T1 sequence (whole entry): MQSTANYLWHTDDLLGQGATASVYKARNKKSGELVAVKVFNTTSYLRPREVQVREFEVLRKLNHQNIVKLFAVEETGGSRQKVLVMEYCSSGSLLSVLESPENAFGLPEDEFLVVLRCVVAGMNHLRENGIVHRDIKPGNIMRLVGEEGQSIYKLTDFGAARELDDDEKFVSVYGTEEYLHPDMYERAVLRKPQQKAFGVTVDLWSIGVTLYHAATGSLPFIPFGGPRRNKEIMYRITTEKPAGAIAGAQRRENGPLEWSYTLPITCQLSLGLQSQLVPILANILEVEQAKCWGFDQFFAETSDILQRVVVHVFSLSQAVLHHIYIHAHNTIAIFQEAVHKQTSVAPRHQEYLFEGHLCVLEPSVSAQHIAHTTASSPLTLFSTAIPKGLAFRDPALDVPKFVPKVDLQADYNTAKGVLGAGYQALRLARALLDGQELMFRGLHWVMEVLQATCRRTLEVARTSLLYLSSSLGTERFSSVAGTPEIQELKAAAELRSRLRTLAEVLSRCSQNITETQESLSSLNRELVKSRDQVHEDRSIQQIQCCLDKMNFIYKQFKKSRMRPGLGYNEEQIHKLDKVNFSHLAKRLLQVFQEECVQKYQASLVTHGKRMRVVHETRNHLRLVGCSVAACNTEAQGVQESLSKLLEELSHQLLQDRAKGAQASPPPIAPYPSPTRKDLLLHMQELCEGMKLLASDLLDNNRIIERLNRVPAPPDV
The assay is described as follows: Percentage IKKepsilon activity remaining in the presence of 0.01uM inhibitor. The settings on record: filed as antagonist.

In assay [3] the target is SRSF protein kinase 1 (Homo sapiens) (UniProt Q96SB4). The assay is described as follows: Percentage SRPK1 activity remaining in the presence of 3uM inhibitor.
In assay [4] the target is MAP kinase-activated protein kinase 2 (Homo sapiens) (UniProt P49137). The assay is described as follows: Percentage MAPKAPK2 activity remaining in the presence of 3uM inhibitor.
Sequence of MAP kinase-activated protein kinase 2 (Homo sapiens) (P49137 whole entry, looked up): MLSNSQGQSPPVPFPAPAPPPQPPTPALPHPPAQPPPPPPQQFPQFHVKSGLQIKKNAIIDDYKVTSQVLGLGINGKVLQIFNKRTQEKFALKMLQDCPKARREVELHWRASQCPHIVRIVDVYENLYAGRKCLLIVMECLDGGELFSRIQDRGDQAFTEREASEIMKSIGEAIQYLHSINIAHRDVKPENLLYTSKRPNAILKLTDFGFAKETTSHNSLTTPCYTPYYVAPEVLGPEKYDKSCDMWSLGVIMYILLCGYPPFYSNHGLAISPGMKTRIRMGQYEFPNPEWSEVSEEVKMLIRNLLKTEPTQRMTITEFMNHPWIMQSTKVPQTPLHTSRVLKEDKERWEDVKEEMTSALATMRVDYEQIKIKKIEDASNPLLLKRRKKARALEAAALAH
Assay [5] addresses T2, Serine/threonine-protein kinase pim-2 (Homo sapiens, UniProt Q9P1W9). The assay can be described thus: Percentage PIM2 activity remaining in the presence of 3uM inhibitor.
For assay [6], the target named is Myosin light chain kinase, smooth muscle (Homo sapiens, UniProt Q15746). The assay can be described thus: Percentage SmMLCK activity remaining in the presence of 3uM inhibitor.
Sequence of Myosin light chain kinase, smooth muscle (Q15746 whole entry): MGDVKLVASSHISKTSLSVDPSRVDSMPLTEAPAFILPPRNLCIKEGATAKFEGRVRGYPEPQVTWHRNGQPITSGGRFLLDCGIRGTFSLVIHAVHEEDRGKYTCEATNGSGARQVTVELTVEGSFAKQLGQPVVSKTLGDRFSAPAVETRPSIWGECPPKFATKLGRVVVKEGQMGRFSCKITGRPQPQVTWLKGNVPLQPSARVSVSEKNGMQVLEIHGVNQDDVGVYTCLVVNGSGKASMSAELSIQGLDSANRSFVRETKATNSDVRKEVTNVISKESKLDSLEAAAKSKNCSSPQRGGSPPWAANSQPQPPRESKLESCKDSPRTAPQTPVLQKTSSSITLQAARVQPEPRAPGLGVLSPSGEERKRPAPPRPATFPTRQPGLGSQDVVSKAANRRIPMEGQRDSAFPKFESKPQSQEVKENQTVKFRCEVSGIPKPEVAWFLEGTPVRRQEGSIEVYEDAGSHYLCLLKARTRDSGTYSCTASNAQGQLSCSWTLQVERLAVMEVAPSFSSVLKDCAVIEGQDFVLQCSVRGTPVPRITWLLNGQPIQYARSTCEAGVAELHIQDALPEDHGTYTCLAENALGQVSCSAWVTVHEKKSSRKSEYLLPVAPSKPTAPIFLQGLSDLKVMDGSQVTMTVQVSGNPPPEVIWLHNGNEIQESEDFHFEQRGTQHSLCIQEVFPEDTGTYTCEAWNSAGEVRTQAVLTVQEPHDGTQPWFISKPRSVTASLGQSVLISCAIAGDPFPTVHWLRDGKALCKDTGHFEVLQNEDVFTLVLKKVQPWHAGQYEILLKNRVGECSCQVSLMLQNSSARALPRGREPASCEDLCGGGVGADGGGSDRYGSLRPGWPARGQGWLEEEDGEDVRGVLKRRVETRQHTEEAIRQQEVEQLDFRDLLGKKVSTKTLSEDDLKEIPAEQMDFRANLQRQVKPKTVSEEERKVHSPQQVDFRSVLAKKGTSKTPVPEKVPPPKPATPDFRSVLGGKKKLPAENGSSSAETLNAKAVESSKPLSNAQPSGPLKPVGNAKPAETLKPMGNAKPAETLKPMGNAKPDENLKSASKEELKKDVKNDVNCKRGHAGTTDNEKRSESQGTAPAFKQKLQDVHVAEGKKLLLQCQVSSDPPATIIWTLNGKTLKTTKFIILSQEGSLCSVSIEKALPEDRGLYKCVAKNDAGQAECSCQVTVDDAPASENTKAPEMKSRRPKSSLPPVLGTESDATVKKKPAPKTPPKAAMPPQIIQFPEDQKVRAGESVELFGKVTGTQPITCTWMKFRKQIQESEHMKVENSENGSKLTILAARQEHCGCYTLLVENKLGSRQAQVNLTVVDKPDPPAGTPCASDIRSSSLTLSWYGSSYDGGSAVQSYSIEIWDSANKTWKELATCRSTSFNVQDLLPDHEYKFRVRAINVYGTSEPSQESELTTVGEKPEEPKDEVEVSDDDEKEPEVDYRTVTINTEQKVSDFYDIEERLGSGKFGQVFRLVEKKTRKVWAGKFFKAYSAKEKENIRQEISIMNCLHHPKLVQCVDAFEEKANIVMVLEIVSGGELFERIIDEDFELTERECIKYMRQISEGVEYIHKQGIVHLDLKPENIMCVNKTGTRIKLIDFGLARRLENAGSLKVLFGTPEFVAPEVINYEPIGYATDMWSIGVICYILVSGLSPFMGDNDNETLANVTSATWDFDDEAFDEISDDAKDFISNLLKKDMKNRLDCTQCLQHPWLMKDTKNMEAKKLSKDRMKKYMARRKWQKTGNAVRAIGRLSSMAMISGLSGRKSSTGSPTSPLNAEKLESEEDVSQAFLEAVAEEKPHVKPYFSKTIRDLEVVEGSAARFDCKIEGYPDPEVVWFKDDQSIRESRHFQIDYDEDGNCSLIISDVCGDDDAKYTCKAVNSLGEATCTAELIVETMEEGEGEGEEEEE
Assay [7] concerns the target T3, Protein kinase C zeta type (Homo sapiens) (UniProt Q05513).
T3 sequence (whole entry): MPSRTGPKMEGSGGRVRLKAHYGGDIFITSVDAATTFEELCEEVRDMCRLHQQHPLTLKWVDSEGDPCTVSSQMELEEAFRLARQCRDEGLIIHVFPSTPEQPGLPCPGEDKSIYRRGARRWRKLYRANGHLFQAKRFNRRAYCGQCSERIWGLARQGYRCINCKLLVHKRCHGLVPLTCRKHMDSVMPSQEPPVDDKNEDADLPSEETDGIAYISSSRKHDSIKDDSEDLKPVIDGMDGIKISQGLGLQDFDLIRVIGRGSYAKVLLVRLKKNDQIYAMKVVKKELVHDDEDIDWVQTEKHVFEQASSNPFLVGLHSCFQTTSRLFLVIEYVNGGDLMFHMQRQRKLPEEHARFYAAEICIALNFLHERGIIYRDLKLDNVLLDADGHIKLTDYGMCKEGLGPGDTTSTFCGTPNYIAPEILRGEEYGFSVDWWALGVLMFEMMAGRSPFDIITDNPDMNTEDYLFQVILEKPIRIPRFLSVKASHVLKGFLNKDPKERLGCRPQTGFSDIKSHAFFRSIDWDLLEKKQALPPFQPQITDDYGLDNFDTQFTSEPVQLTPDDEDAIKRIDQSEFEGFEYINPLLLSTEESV
The assay is described as follows: Percentage PKCzeta activity remaining in the presence of 3uM inhibitor.

The target in assay [8] is Mitogen-activated protein kinase 11 (Homo sapiens) (UniProt Q15759). The assay can be described thus: Percentage p38beta activity remaining in the presence of 3uM inhibitor.
Sequence of Mitogen-activated protein kinase 11 (Homo sapiens) (Q15759 whole entry): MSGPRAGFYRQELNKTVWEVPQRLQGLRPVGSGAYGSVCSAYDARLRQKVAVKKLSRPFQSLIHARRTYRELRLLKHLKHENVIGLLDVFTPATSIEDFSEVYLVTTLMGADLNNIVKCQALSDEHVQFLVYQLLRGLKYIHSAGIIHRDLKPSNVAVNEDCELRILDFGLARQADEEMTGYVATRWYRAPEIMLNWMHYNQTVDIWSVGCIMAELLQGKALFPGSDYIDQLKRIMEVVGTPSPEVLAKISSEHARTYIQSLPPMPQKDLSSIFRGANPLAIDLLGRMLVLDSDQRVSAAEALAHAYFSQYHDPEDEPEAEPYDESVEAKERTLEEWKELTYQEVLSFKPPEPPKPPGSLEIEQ
Assay [9] concerns the target Serine/threonine-protein kinase pim-1 (Homo sapiens, UniProt P11309). The assay is described as follows: Percentage PIM1 activity remaining in the presence of 3uM inhibitor.
Assay [10] addresses T2, Serine/threonine-protein kinase pim-2. The assay can be described thus: Percentage PIM2 activity remaining in the presence of 25uM inhibitor.
In assay [11] the target is T4, Mitogen-activated protein kinase 13 (Homo sapiens) (UniProt O15264).
T4 sequence (whole entry): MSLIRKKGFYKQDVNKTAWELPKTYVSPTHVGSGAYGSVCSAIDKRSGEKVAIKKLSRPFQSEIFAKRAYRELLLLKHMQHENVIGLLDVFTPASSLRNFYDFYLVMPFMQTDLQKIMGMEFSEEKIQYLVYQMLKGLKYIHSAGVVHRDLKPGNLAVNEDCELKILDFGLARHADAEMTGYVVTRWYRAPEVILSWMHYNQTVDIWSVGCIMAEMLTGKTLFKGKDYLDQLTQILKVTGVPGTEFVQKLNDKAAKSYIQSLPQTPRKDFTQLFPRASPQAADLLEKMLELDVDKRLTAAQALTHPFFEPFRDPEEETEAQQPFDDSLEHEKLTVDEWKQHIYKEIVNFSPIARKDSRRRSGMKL
The assay is described as follows: Percentage p38delta activity remaining in the presence of 25uM inhibitor.

For assay [12], the target named is Serine/threonine-protein kinase Nek6 (Homo sapiens) (UniProt Q9HC98). The assay is described as follows: Percentage NEK6 activity remaining in the presence of 25uM inhibitor.
Sequence of Serine/threonine-protein kinase Nek6 (Homo sapiens) (Q9HC98 whole entry): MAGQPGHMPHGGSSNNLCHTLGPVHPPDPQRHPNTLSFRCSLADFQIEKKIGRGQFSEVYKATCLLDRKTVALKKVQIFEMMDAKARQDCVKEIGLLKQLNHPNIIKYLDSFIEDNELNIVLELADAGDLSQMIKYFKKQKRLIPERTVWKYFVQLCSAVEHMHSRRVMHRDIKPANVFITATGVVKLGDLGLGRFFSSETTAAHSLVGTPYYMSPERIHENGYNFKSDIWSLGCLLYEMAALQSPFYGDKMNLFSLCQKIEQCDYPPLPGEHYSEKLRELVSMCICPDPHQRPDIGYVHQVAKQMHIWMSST
The target in assay [13] is Ribosomal protein S6 kinase alpha-3 (Homo sapiens) (UniProt P51812). The assay can be described thus: Percentage RSK2 activity remaining in the presence of 2uM inhibitor.
The target of assay [14] is MAP kinase-activated protein kinase 2 (Homo sapiens) (UniProt P49137). The assay can be described thus: Percentage MAPKAPK2 activity remaining in the presence of 2uM inhibitor.
In assay [15] the target is Serine/threonine-protein kinase Nek6 (Homo sapiens) (UniProt Q9HC98). The assay is described as follows: Percentage NEK6 activity remaining in the presence of 2uM inhibitor.
The target in assay [16] is Dual specificity mitogen-activated protein kinase kinase 1 (Homo sapiens) (UniProt Q02750). The assay can be described thus: Percentage MKK1 activity remaining in the presence of 2uM inhibitor.
Sequence of Dual specificity mitogen-activated protein kinase kinase 1 (Homo sapiens) (Q02750 whole entry): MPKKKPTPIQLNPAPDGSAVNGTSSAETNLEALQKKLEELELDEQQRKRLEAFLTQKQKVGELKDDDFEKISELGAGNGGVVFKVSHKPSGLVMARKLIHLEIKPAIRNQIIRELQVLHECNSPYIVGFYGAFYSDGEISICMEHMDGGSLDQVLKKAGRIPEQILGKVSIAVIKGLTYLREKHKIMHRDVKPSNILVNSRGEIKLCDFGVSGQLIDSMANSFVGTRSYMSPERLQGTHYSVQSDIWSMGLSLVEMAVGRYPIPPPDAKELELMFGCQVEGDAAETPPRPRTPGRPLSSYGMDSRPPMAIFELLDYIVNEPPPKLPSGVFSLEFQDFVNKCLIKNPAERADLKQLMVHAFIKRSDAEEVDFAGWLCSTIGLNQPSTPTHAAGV
The target of the next assay is Aurora kinase B (Homo sapiens, UniProt Q96GD4). The assay is described as follows: Percentage Aurora B activity remaining in the presence of 2uM inhibitor.
Sequence of Aurora kinase B (Q96GD4 whole entry): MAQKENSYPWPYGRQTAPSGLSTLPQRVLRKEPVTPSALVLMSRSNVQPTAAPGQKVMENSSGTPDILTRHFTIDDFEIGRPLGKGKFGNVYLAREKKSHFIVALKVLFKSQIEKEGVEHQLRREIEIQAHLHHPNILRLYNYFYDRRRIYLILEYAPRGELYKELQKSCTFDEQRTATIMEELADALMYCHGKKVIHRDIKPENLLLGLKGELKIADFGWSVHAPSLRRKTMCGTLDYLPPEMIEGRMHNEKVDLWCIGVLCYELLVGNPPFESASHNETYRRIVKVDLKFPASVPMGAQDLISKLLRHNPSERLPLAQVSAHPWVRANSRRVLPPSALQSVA
The target of assay [17] is Mitogen-activated protein kinase 9 (Homo sapiens, UniProt P45984). The assay is described as follows: Percentage JNK2 activity remaining in the presence of 25uM inhibitor.
Sequence of Mitogen-activated protein kinase 9 (P45984 whole entry, looked up): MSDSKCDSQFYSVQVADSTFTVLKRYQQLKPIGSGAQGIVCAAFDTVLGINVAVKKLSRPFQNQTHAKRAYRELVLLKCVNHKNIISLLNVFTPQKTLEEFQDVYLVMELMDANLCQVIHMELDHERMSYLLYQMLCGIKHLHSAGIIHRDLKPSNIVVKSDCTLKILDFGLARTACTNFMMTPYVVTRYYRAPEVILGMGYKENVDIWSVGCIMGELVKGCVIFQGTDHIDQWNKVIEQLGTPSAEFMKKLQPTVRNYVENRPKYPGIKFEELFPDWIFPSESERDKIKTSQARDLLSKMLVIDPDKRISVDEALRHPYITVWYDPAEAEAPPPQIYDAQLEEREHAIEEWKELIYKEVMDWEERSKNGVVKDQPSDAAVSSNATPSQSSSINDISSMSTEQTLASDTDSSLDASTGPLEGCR

T2 sequence (Q9P1W9 whole entry, looked up): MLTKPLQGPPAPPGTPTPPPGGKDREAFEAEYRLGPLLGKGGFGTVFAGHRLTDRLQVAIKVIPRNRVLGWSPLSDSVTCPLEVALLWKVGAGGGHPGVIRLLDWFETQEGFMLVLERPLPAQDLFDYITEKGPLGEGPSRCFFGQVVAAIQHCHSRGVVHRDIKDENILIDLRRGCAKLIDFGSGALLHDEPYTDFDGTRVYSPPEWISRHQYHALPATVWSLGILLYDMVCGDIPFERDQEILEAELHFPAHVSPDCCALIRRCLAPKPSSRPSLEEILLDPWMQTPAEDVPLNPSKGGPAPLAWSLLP
Sequence of Serine/threonine-protein kinase pim-1 (P11309 whole entry, looked up): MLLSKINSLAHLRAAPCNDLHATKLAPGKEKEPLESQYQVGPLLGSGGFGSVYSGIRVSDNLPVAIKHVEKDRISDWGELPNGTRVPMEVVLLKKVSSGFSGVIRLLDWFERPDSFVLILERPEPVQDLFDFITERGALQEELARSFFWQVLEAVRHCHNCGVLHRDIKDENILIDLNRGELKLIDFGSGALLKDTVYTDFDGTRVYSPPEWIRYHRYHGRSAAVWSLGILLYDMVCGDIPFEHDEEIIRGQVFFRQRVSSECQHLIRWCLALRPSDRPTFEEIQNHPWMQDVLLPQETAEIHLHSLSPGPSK

By IC50 is commonly meant the concentration that gives 50% inhibition. As for `CC(C)[C@H](CO)Nc1nc(Nc2cccc(Cl)c2)c2ncn(C(C)C)c2n1` [PURVALANOLA], the IC50 in assay [1] is listed as 130 nM (antagonist).
Turning to `O=C(NCCCNc1nc(Nc2cccc(NC(=O)N3CCCC3)c2)ncc1I)c1cccs1`, the Activity in [2] is 21%.
On to `Cc1ccc(-c2c(C(=O)CF)n(CCCO)c3ncnc(N)c23)cc1`, for which the Activity in assay [3] was found to be 85%; in assay [4], 94%; in assay [5], 85%; in assay [6], 82%; in assay [7], 91%; in assay [8] it was 85%. Moreover, in assay [9], the Activity was 61%.
For `COc1cc(OC)c(/C=C2/C(=O)Nc3ccccc32)c(OC)c1`, the Activity is 75% in [10], 91% in assay [11] and 95% in [12].
Consider `Cn1cc(C2=C(c3ccc(Cl)cc3Cl)C(=O)NC2=O)c2ccccc21`, for which the Activity in [13] worked out at 67%; in [14], 82%; in assay [15], 74%; in assay [16] it was 71%; at Aurora kinase B it was 87%.
`NCCNS(=O)(=O)c1ccc(Cl)c2ccncc12`: the Activity stood at 87% in assay [17], 55% in assay [10], 80% in [11] and 90% in assay [12].
